± gives the standard deviation of the averaged measurements.
Experiments:
Assay in all cases: level (log10 ratio to DMSO vehicle control); higher = higher biomarker level / cell amount than vehicle control
Settings in all cases: in DMSO
[1] = compound: OCC(F)(F)C(F)(F)C(F)(F)C(F)(F)C(F)(F)C(F)F [1H,1H,7H-Dodecafluoro-1-heptanol]
Procedure: (§1)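 BioMAP Diversity Plus panel of 12 human primary cell co-culture systems (3C, 4H, LPS, SAg, BT, BF4T, BE3C, CASM3C, HDF3CGF, KF3CT, MyoF, Mphg). Compounds were added 1 h before stimulation and left for 24 h (MyoF 48 h; BT 72 h for soluble read-outs or 6 d for IgG). Biomarkers were read by ELISA, cytotoxicity by SRB, PBMC viability and proliferation by Alamar Blue. Each well value was divided by the mean of 8 DMSO control wells on the same plate and log10 transformed; duplicate blinded samples were tested at 4 concentrations.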

[2] = compound: CNS(=O)(=O)C(F)(F)C(F)(F)C(F)(F)C(F)(F)C(F)(F)C(F)(F)C(F)(F)C(F)(F)F [N-Methylperfluorooctanesulfonamide]
Procedure: as §1

[3] = compound: O=C(O)CCC(F)(F)C(F)(F)C(F)(F)F [3:3 Fluorotelomer carboxylic acid]
Procedure: as §1

[4] = compound: FC(F)(F)C(F)(F)C(F)(F)C(F)(F)C(F)(F)C(F)(F)C(F)(F)CCI [1-Iodo-1H,1H,2H,2H-perfluorononane]
Procedure: as §1

[5] = compound: CCCCCCCCC(F)(F)C(F)(F)C(F)(F)C(F)(F)C(F)(F)C(F)(F)F [1-(Perfluorohexyl)octane]
Procedure: as §1

[6] = compound: O=C(O)C(F)(F)C(F)(F)C(F)(F)C(F)(F)C(F)(F)F [Perfluorohexanoic acid]
Procedure: as §1

[7] = compound: O=S(=O)(O)C(F)(F)C(F)(F)C(F)(F)C(F)(F)C(F)(F)C(F)(F)C(F)(F)C(F)(F)F [Perfluorooctanesulfonic acid]
Procedure: as §1

Test System | level (log10) ([1]; 6700 nM) | level (log10) ([1]; 20000 nM) | level (log10) ([1]; 60000 nM) | level (log10) ([2]; 6700 nM) | level (log10) ([2]; 20000 nM) | level (log10) ([2]; 60000 nM) | level (log10) ([3]; 6700 nM) | level (log10) ([3]; 20000 nM) | level (log10) ([3]; 60000 nM) | level (log10) ([4]; 6700 nM) | level (log10) ([4]; 20000 nM) | level (log10) ([5]; 6700 nM) | level (log10) ([5]; 20000 nM) | level (log10) ([6]; 6700 nM) | level (log10) ([6]; 20000 nM) | level (log10) ([6]; 60000 nM) | level (log10) ([7]; 6700 nM) | level (log10) ([7]; 20000 nM) | level (log10) ([7]; 60000 nM)
HDF3CGF:CD106/VCAM-1 | 0.014 ± 0.0014 | 0.011 ± 0.0085 | -0.0045 ± 0.00071 | -0.164 ± 0.017 | -0.176 ± 0.029 | -0.154 ± 0.0021 | -0.0055 ± 0.00071 | 0.02 ± 0.014 | -0.009 ± 0.0085 | -0.0925 ± 0.013 | -0.115 ± 0.018 | -0.004 ± 0.016 | -0.0265 ± 0.0064 | -0.043 ± 0.04 | -0.008 ± 0.023 | -0.0145 ± 0.086 | -0.043 ± 0.03 | -0.089 ± 0.0057 | -0.21 ± 0.083
MyoF:bFGF | 0.0085 ± 0.0064 | 0.0065 ± 0.015 | 0.0065 ± 0.013 | 0 ± 0.014 | -0.0085 ± 0.033 | 0.005 ± 0.033 | 0.0025 ± 0.0021 | 0.0025 ± 0.0092 | 0.0085 ± 0.0092 | 0.01 ± 0.0014 | 0.021 ± 0.017 | -0.0025 ± 0.012 | 0.0045 ± 0.005 | 0.0005 ± 0.005 | -0.0105 ± 0.019 | 0.0005 ± 0.021 | -0.004 | -0.0185 ± 0.028 | -0.0125 ± 0.018
CASM3C:CXCL9/MIG | 0.002 ± 0.0071 | 0.007 ± 0.0014 | 0.0195 ± 0.005 | -0.0675 ± 0.026 | -0.086 ± 0.0085 | -0.05 ± 0.045 | 0.004 ± 0.0028 | 0.008 ± 0.0099 | 0.002 | -0.0355 ± 0.025 | -0.057 ± 0.042 | -0.0115 ± 0.0021 | 0.0255 ± 0.005 | 0.008 ± 0.0057 | 0.001 ± 0.0042 | 0.012 ± 0.021 | -0.0085 ± 0.00071 | -0.003 ± 0.0014 | 0.0705 ± 0.032
CASM3C:IL-6 | -0.0165 ± 0.035 | -0.024 ± 0.021 | 0.008 ± 0.028 | -0.0605 ± 0.036 | -0.066 ± 0.02 | -0.0025 ± 0.035 | -0.029 ± 0.016 | -0.0295 ± 0.015 | 0.0085 ± 0.018 | -0.0105 ± 0.013 | 0.0315 ± 0.056 | -0.019 ± 0.031 | 0.0205 ± 0.023 | -0.0075 ± 0.042 | -0.0155 ± 0.0021 | -0.0125 ± 0.053 | -0.0375 ± 0.0078 | -0.0465 ± 0.005 | -0.061 ± 0.099
BE3C:PAI-I | -0.007 ± 0.0057 | -0.009 ± 0.0099 | -0.0105 ± 0.0078 | -0.157 ± 0.013 | -0.162 ± 0.029 | -0.138 ± 0.025 | -0.0095 ± 0.00071 | -0.0025 ± 0.015 | 0.0005 ± 0.0078 | 0.016 ± 0.0071 | -0.01 ± 0.0099 | -0.025 ± 0.0057 | -0.024 | -0.019 ± 0.018 | -0.029 ± 0.011 | 0.0065 ± 0.022 | -0.006 ± 0.0014 | -0.195 ± 0.0028 | -0.301 ± 0.0035
KF3CT:SRB | -0.0025 ± 0.0064 | -0.001 ± 0.0042 | 0.002 ± 0.0085 | -0.0005 ± 0.00071 | -0.0035 ± 0.0078 | -0.002 ± 0.024 | -0.0085 ± 0.00071 | -0.004 ± 0.0042 | 0.0015 ± 0.018 | 0.0005 ± 0.005 | 0.005 ± 0.013 | -0.0025 ± 0.023 | -0.0115 ± 0.015 | 0.0045 ± 0.0035 | -0.012 ± 0.0014 | 0.0045 ± 0.00071 | -0.0195 ± 0.0021 | -0.012 ± 0.0042 | -0.012 ± 0.0099
MyoF:Collagen I | 0.0055 ± 0.012 | -0.0175 ± 0.018 | 0.003 ± 0.023 | -0.019 ± 0.0071 | -0.0015 ± 0.023 | 0.0265 ± 0.026 | -0.0005 ± 0.037 | 0.0095 ± 0.0035 | 0.0255 ± 0.026 | 0.007 ± 0.0042 | -0.015 ± 0.028 | 0.0045 ± 0.016 | -0.0205 ± 0.0035 | -0.01 ± 0.0057 | -0.0095 ± 0.0092 | -0.0025 ± 0.011 | -0.012 ± 0.018 | -0.0045 ± 0.0092 | 0.015 ± 0.021
HDF3CGF:TIMP-2 | -0.0025 ± 0.0092 | -0.0035 ± 0.0021 | 0.0025 ± 0.022 | -0.094 ± 0.0057 | -0.136 ± 0.046 | -0.049 ± 0.044 | -0.0075 ± 0.023 | -0.0015 ± 0.0035 | -0.0195 ± 0.0064 | 0.0165 ± 0.011 | 0.0055 ± 0.0064 | -0.005 ± 0.067 | -0.0035 ± 0.052 | 0.033 ± 0.0014 | 0.021 ± 0.017 | 0.025 ± 0.037 | -0.028 ± 0.0085 | -0.0695 ± 0.043 | -0.149 ± 0.018
HDF3CGF:Collagen I | -0.0095 ± 0.011 | -0.019 ± 0.027 | 0.0025 ± 0.08 | -0.0245 ± 0.012 | -0.041 ± 0.038 | 0.0085 ± 0.066 | -0.029 ± 0.0042 | -0.006 ± 0.035 | 0.0325 ± 0.07 | 0.0105 ± 0.042 | -0.011 ± 0.058 | 0.006 ± 0.0085 | -0.01 ± 0.1 | -0.035 ± 0.033 | 0.02 ± 0.025 | -0.0035 ± 0.054 | 0.0175 ± 0.033 | 0.0045 ± 0.026 | 0.0065 ± 0.042
HDF3CGF:CXCL11/I-TAC | 0.011 ± 0.0028 | 0 ± 0.018 | -0.0015 ± 0.011 | -0.0385 ± 0.015 | -0.069 ± 0.0071 | -0.0495 ± 0.011 | 0.0025 ± 0.0092 | -0.0065 ± 0.0078 | 0.012 ± 0.035 | -0.0295 ± 0.005 | -0.094 ± 0.018 | -0.0255 ± 0.023 | -0.0365 ± 0.057 | 0.0045 ± 0.005 | 0.0005 ± 0.021 | -0.021 ± 0.031 | -0.0165 ± 0.016 | -0.0185 ± 0.00071 | -0.087 ± 0.017
HDF3CGF:EGFR | -0.004 ± 0.025 | -0.015 ± 0.03 | 0.0075 ± 0.011 | 0.016 ± 0.0057 | -0.014 ± 0.023 | 0.0055 ± 0.0064 | -0.023 ± 0.018 | -0.012 ± 0.024 | -0.003 ± 0.045 | 0.016 | 0.0295 ± 0.023 | -0.007 ± 0.0028 | 0.0125 ± 0.005 | 0.027 ± 0.017 | 0.03 ± 0.021 | 0.003 ± 0.081 | -0.0205 ± 0.0064 | -0.0495 ± 0.043 | -0.04 ± 0.018
CASM3C:M-CSF | -0.0045 ± 0.0035 | -0.0185 ± 0.0035 | 0.0145 ± 0.039 | 0 ± 0.016 | 0.0105 ± 0.077 | 0.0575 ± 0.042 | -0.0055 ± 0.037 | -0.02 ± 0.018 | 0.0185 ± 0.028 | -0.0035 ± 0.0078 | 0.0125 ± 0.028 | -0.0095 ± 0.013 | 0.0125 ± 0.036 | -0.0185 ± 0.019 | -0.0125 ± 0.013 | 0.0105 ± 0.0092 | -0.0135 ± 0.016 | 0.009 ± 0.0028 | -0.009 ± 0.03
CASM3C:CCL2/MCP-1 | -0.0065 ± 0.013 | -0.017 ± 0.02 | -0.008 ± 0.033 | 0.0095 ± 0.022 | 0.0295 ± 0.012 | 0.0645 ± 0.039 | -0.011 ± 0.021 | -0.015 ± 0.0028 | -0.0135 ± 0.022 | 0.003 ± 0.0099 | 0.02 ± 0.018 | -0.0065 ± 0.018 | 0.001 ± 0.0042 | -0.014 ± 0.0042 | 0.0025 ± 0.021 | 0.008 ± 0.027 | -0.0025 ± 0.015 | -0.0065 ± 0.0064 | 0.019 ± 0.023
lMphg:CD69 | -0.0275 ± 0.0021 | -0.0305 ± 0.0064 | -0.018 ± 0.075 | -0.0715 ± 0.03 | -0.0165 ± 0.013 | 0.061 ± 0.027 | 0.013 ± 0.013 | 0.053 ± 0.047 | 0.035 ± 0.037 | -0.0025 ± 0.023 | -0.053 ± 0.076 | -0.0265 ± 0.0078 | -0.0345 ± 0.015 | 0.005 ± 0.035 | -0.003 ± 0.0071 | -0.017 ± 0.0042 | -0.046 | -0.0585 ± 0.029 | -0.102 ± 0.091
CASM3C:SRB | -0.0045 ± 0.00071 | -0.006 ± 0.0028 | -0.0015 ± 0.0021 | 0.01 ± 0.0014 | -0.0015 ± 0.0021 | 0.002 ± 0.0028 | 0.005 ± 0.016 | 0.002 ± 0.014 | -0.0055 ± 0.011 | -0.0025 ± 0.0021 | -0.0015 ± 0.0064 | -0.0025 ± 0.0035 | -0.0085 ± 0.00071 | -0.001 | -0.013 ± 0.0028 | -0.0005 ± 0.0021 | 0.003 ± 0.0042 | 0.0005 ± 0.0064 | 0.0095 ± 0.011
